Results from patent publication US11219596B2, “Compositions and methods for ophthalmic and/or other applications” (The Johns Hopkins University, priority 2012, dated 2022).
Like-named read-outs stand apart in the source and are kept apart here.

Experiments:
[1] = test system: vascular leakage after intravitreal injection of VEGF; test: Rabbit VEGF-challenge model (fluorescein angiography); assay type: in vivo, Dutch belted rabbits; details: day 6; VEGF intravitreal on day 3; 5% axitinib-MPP 50 μL every 4 hours days 1-6, or one intravitreal Avastin on day 1
Source text: On day 3, the rabbits received an intravitreal injection of VEGF. On day 6, the rabbits were accessed for leakage via fluorescein angiography.
In this model, Dutch belted rabbits were given an intravitreal injection of VEGF to stimulate vascular growth. Fluorescein angiography was used to determine the degree to which the rabbits developed abnormal vascular and leakage.

[2] = Multiple particle tracking of pyrene nanoparticles milled with PVAs and other surface-altering agents in CVM
Protocol: An aqueous dispersion containing pyrene and one of the surface-altering agents listed above was stirred with milling media until particle size was reduced below 500 nm (as measured by dynamic light scattering).
Prior to quantifying mobility of pyrene particles, their spatial distribution in the mucus sample was assessed visually.

[3] = Multiple particle tracking of pyrene/stabilizer nanoparticles in CVM
Protocol: Prior to quantifying mobility of the produced pyrene nanoparticles, their spatial distribution in the mucus sample was assessed by microscopy at low magnifications (10×, 40×).
CVM was collected by inserting a Softcup® menstrual collection cup into the vaginal tract as described by the product literature for between 30 seconds and 2 minutes. After removal the CVM was then collected from the Softcup® by gentle centrifugation at ˜30×G to ˜120×G in a 50 mL centrifuge tube. In Example 1, CVM was used undiluted and fresh (stored for no longer than 7 days under refrigerated conditions). Barrier and transport of all CVM samples used in Example 1 were verified with negative (200 nm carboxylated polystyrene particles) and positive (200 nm polystyrene particles modified with PEG 5K) controls. In Example 2, CVM was lyophilized and reconstituted. In Example 2, mucus was frozen at −50° C. and then lyophilized to dryness. Samples were then stored at −50° C. Before use, the mucus was reconstituted by grinding the solid into a fine powder using a mortar and pestle followed by water addition to a final volume equal to the original volume to 2 times the original volume. The reconstituted mucus was then incubated at 4° C. for 12 hours and used as described in Example 2. Barrier and transport of all CVM samples used in Example 2 were verified with negative (200 nm carboxylated polystyrene particles) and positive (F127 coated 200 nm polystyrene particles) controls.

[4] = assay type: in vitro ADME, human
Source text: The mobility of LE nanoparticles from the produced nanosuspensions in fresh undiluted human cervicovaginal mucus (CVM) was characterized by dark-field microscopy using a CytoViva® High Resolution Illumination System which allows visualization of fluorescent and non-fluorescent nano-sized objects. […] Mobility of particles in the movies was scored on a scale from 0 to 3 in order of increasing mobility, in a single-blind experiment by independent observers. The scoring criterion is as follows: 0-0.5 immobile; 0.51-1.5 slightly mobile; 1.51-2.5 moderately mobile; and 2.51-3.0 very mobile.

[5] = pyrene nanoparticles milled with the surface-altering agent, in CVM

Avastin®: positive control, one intravitreal injection; commonly used off-label to treat AMD
retinal vessel growth and leakage (fluorescein angiography) [1]: no change in retinal vasculature

CCCCCCCCCCCCCCCC[N+](C)(C)C [CTAB, Cetytrimethylammonium bromide]
Sample (relative) <Vmean>rel [2, 5]: −0.02
Sample <Vmean> [2, 5]: 0.32 um/s
Sample <Vmean> (ensemble-average velocity) ([3]; pyrene/stabilizer nanoparticles in CVM): 0.32 um/s
Sample (relative) <Vmean>rel ([3]; pyrene/stabilizer nanoparticles in CVM, relative to negative and positive controls): −0.02

Pluronic F127
mobility score in CVM [4]: > 2.51

Pluronic P123
mobility score in CVM [4]: 1.51.-2.50

Tween 80
Sample (relative) <Vmean>rel [2]: 0.17
Sample <Vmean> [2]: 0.94 um/s
Sample (relative) <Vmean>rel [3]: 0.17
Sample <Vmean> (ensemble-average velocity) [3]: 0.94 um/s

Tyloxapol
Sample (relative) <Vmean>rel [2]: −0.02
Sample <Vmean> [2]: 0.42 um/s
Sample (relative) <Vmean>rel [3]: −0.02
Sample <Vmean> (ensemble-average velocity) [3]: 0.42 um/s

Pluronic F68
mobility score in CVM [4]: < 0.50
